Experiment: xn = mol fraction of the nth substance listed

CCCC[n+]1ccn(C)c1.F[B-](F)(F)F + C1COCCO1
298.15 K, 100 kPa
Settings | electrical conductivity [S/m] | viscosity [mPa·s]
x1 = 0.2559 | 0.403 | 6.011
x1 = 0.3956 | 0.395 | 12.17
x1 = 0.4988 | 0.34 | 19.88
x1 = 0.6 | 0.306 | 29.48
x1 = 0.7021 | – | 42.97
x1 = 0.8993 | 0.252 | 79.5
x1 = 1 | 0.243 | 104.7

CCCC[n+]1ccn(C)c1.F[B-](F)(F)F + C=CC(=O)OC
101 kPa, x1 = 1
Settings | viscosity [mPa·s]
303.15 K | 76.3
313.15 K | 46.2

CCCC[n+]1ccn(C)c1.F[B-](F)(F)F + CC#N
Settings | electrical conductivity [S/m] | viscosity [mPa·s]
298.15 K, 100 kPa, x1 = 0.1059 | 1.25 | 0.879
298.15 K, 100 kPa, x1 = 0.2213 | 1.16 | 2.027
298.15 K, 100 kPa, x1 = 0.3008 | 1.08 | 3.372
298.15 K, 100 kPa, x1 = 0.3894 | 0.782 | 5.548
298.15 K, 100 kPa, x1 = 0.4432 | 0.733 | 7.71
298.15 K, 100 kPa, x1 = 0.6178 | 0.509 | 18.74
298.15 K, 100 kPa, x1 = 0.7111 | 0.374 | 26.09
298.15 K, 100 kPa, x1 = 0.8146 | 0.338 | 41.69
298.15 K, 100 kPa, x1 = 0.9113 | 0.252 | 68.51
298.15 K, 100 kPa, x1 = 1 | 0.243 | 104.7
298.15 K, 101 kPa, x2 = 0 | 0.194 | 116
298.15 K, 101 kPa, x2 = 0.0956 | 0.278 | 80
298.15 K, 101 kPa, x2 = 0.2023 | 0.453 | 50.9
298.15 K, 101 kPa, x2 = 0.3174 | 0.672 | 31
298.15 K, 101 kPa, x2 = 0.4034 | 0.91 | 20.9
298.15 K, 101 kPa, x2 = 0.5137 | 1.34 | 11.9
298.15 K, 101 kPa, x2 = 0.6131 | 1.83 | 6.78
298.15 K, 101 kPa, x2 = 0.7085 | 2.48 | 3.78
298.15 K, 101 kPa, x2 = 0.8093 | 3.1 | 1.91
298.15 K, 101 kPa, x2 = 0.8631 | 3.21 | 1.32
298.15 K, 101.33 kPa, x2 = 0.3999 | – | 17.6
298.15 K, 101.33 kPa, x2 = 0.7988 | – | 1.79
298.15 K, 101.33 kPa, x2 = 0.8988 | – | 0.887
303.15 K, 101 kPa, x2 = 0 | – | 84.2
303.15 K, 101 kPa, x2 = 0.2034 | – | 35.6
313.15 K, 101 kPa, x2 = 0.4013 | – | 11.15
313.15 K, 101 kPa, x2 = 0.6018 | – | 4.33
323.15 K, 101 kPa, x2 = 0 | – | 35.5
323.15 K, 101 kPa, x2 = 0.3011 | – | 12.61
323.15 K, 101 kPa, x2 = 0.5 | – | 5.7
323.15 K, 101 kPa, x2 = 0.7997 | – | 1.221

CCCC[n+]1ccn(C)c1.O=C([O-])C(F)(F)F + CC#N
298.15 K, 101 kPa, x2 = 0.2556
Settings | electrical conductivity [S/m] | viscosity [mPa·s]
– | 0.84 | 24.6

CCC[N+]1(C)CCCC1.O=S(=O)([N-]S(=O)(=O)C(F)(F)F)C(F)(F)F + CC#N
electrical conductivity [S/m], 101 kPa, frequency 0.0005 MHz
Settings | 278.15 K | 288.15 K | 298.15 K | 308.15 K | 318.15 K | 328.15 K
x1 = 0.03242 | 2.26 | 2.44 | 2.63 | 2.78 | 2.91 | 3.13
x1 = 0.09134 | 2.76 | 3.03 | 3.31 | 3.54 | 3.77 | 3.92
x1 = 0.2317 | 2.01 | 2.35 | 2.69 | 2.97 | 3.28 | 3.53

viscosity [mPa·s], 101 kPa
Settings | 278.15 K | 288.15 K | 298.15 K | 308.15 K | 318.15 K | 328.15 K | 338.15 K | 348.15 K | 358.15 K
x1 = 0.03242 | 0.649 | 0.581 | 0.516 | 0.46 | 0.405 | – | – | – | –
x1 = 0.09134 | 1.145 | 0.993 | 0.877 | 0.797 | 0.706 | 0.621 | – | – | –
x1 = 0.2317 | 3.57 | 2.91 | 2.44 | 2.079 | 1.798 | 1.592 | – | – | –
x1 = 1 | 163.6 | 96.2 | 60.6 | 40.8 | 28.9 | 21.3 | 16.29 | 12.82 | 10.34
